Data: patent US20120165325A1, “Stable forms of N-(2,6-Dimethyl-4-morpholin-4-yl-phenyl)-3,3-dimethyl-butyramide” (H. Lundbeck A/S, priority 2009, published 2012)
Marks after values point to notes of the source that are not given here.

Legend:
Male NMRI mice [1] = test: Forced swim test; assay type: in vivo, mouse; details: 30 min before test, last 3 min of 6 min swim, vehicle = 100
Experimental: Subjects. Male NMRI mice (Charles River) weighing 23-25 g were used. The mice were kept 8 mice pr cage in a 12-hr light/dark cycle under controlled conditions for regular in-door temperature (21±2° C.) and humidity (55±5%) with food and tap water available ad libitum. 8 mice were used pr experimental group.
Experimental procedure. The mice were placed in 2000 ml beaker containing 1200 ml of tempered water (25° C.) and left to swim for 6 min. The performance of the mice was video recorded, digitalized and analysed by means of a digital analysis system (Bioobserve). The time spent immobile for the last 3 min. of the test session was quantified for each mouse.
Treatment. 30 min. before the test, mice were treated s.c. with N-(2,6-dimethyl-4-morpholin-4-yl-phenyl)-3,3-dimethyl-butyramide or vehicle (10-%-2-OH-propyl-cyclodextrin, 10 ml/kg). In addition as positive control, imipramine-HCl (40 mg/kg) and a saline control (10 ml/kg) was included.
Analyses. The time spent immobile was statistically compared across the experimental groups against the relevant control group by means of one-way analysis of variance. A post-hoc test (Student-Newman-Keuls) was employed when appropriate. P-levels <0.05 were considered significant.

[2] = tested on: DA levels in the nucleus accumbens; test: Microdialysis: DA levels in the nucleus accumbens of freely moving rats; assay type: in vivo, rat; details: for DA level in the nucleus accumbens, % of baseline: amphetamine 0.5 mg/kg s.c. + compound 5 mg/kg s.c.
Experimental: Subjects. Male Sprague-Dawley rats (Charles River), initially weighing 275-300 g, were used. The animals were housed under a 12-hr light/dark cycle under controlled conditions for regular in-door temperature (21±2° C.) and humidity (55±5%) with food and tap water available ad libitum.
Surgery. Animals were anaesthetized with hypnorm/dormicum (2 ml/kg s.c.) and intracerebral guide cannulas (CMA/12) were stereotaxically implanted, positioning the dialysis probe tip in the nucleus accumbens (co-ordinates: 1.7 mm anterior to bregma, −1.2 mm lateral to bregma, 8.0 mm ventral to the dura). Anchor screws and acrylic cement was applied for fixation of the guide cannula. The body temperature of the animals was maintained at 37° C. by means of a rectal probe and a heating plate. The rats were allowed to recover from surgery for 2 days, housed singly in cages.
Experimental procedure. On the day of the experiment, a microdialysis probe (CMA/12, 0.5 mm diameter, 2 mm length) was inserted through the guide cannula of the conscious animal.
The probes were connected to a microinjection pump via a dual channel swivel which allowed the animals unrestricted movements. Perfusion of the microdialysis probe with filtered Ringer solution (145 mM NaCl, 3 mM KCl, 1 mM MgCl2, 1.2 mM CaCl2) was maintained for the duration of the experiment at a constant flow rate of 1 μL/min. After 180 min of stabilisation, the experiments were initiated. Dialysates were collected every 20 min. After the experiments the rats were sacrificed by decapitation, their brains removed, frozen and sliced for probe placement verification.
Administration of compounds. N-(2,6-dimethyl-4-morpholin-4-yl-phenyl)-3,3-dimethyl-butyramide (5 mg/kg) or vehicle (10% 2-hydroxy-propyl-beta-cyclodextrin, isotonic, pH 5-7) was administered subcutaneously in a volume of 2.5 ml/kg. Thirty min after the first administration dex-amphetamine sulphate (0.5 mg/kg s.c.) was administered.
Analysis of dialvsate. The concentration of dopamine (DA) in the dialysates was assessed by means of HPLC with electrochemicl detection. The dialysate constitutents were separated by reverse phase liquid chromatography (ODS 150×3 mm, […]). Mobile phase consisted of 90 mM NaH2PO4, 50 mM sodium citrate, 367 mg/l sodium 1-octanesulfonic acid, 50 μM EDTA and 8% acetonitrile (pH 4.0) at a flow rate of 0.5 mL/min. Electrochemical detection of DA was accomplished using a coulometric detector; potential set at E1=−75 mV and E2=300 mV (guard cell at 350 mV) (Coulochem II, ESA). The dialysate levels of DA in the three dialyse samples preceding the administration of compound were averaged and used as baseline level of DA (100%).
Statistical analysis. The dialysate levels of DA in the three dialyse samples preceding the administration of compound were averaged and used as baseline level of DA (100%). Data were analysed using repeated measure analyses of variance followed by post hoc tests (Tukey test), when appropriate. *p<0.05 were considered significant.

Male NMRI mice [3] = test: Amphetamine sensitisation: inhibition of the sensitised behavioural response to amphetamine; assay type: in vivo, mouse; details: Mus musculus; amphetamine-pretreated mice; s.c. 30 min before D-amphetamine challenge 1.25 mg/kg s.c.; 30 min test; S.D. in brackets
Experimental: Subjects. […] The animals were housed 6 mice pr cage in a 12-hr light/dark cycle under controlled conditions for regular in-door temperature (21±2° C.) and humidity (55±5%) with food and tap water available ad libitum.
Experimental procedure. […] 5×8 infrared light sources and photocells interspaced by 4 cm monitor the locomotor activity.
Administration of compounds.
Data analyses. […] A therapeutic index value can subsequently be calculated by dividing the first ED50 by the second.

Male Wistar rats = test: Amphetamine challenge: antagonism of d-amphetamine induced hyperactivity; assay type: in vivo; details: rat; s.c. 30 min before d-amphetamine sulphate 0.5 mg/kg; motility over 2 hours; std. dev. in brackets
Experimental: Subjects. Male Wistar rats (Taconic, Denmark) weighing 170-240 g are used. The animals were housed under a 12-hr light/dark cycle under controlled conditions for regular in-door temperature (21±2° C.) and humidity (55±5%) with food and tap water available ad libitum. Eight rats were used at each dose level and in the parallel control group receiving the vehicle to the test compound plus d-amphetamine and the group receiving vehicle injections only.
Experimental procedure. The experiment was made in normal light conditions in an undisturbed room. The test substance was injected 30 min before s.c. before the injection of d-amphetamine sulphate (0.5 mg/kg). Immediately after injection of d-amphetamine, the rats were placed individually in the test cages that were placed in a U-frame, equipped with 4 infrared light sources and photocells. The light beams crossed the cage 4 cm above the cage floor. Recording of a motility count required interruption of adjacent light beams, thus avoiding counts induced by stationary movements of the rat. Motility (counts) was recorded for a period of 2 hours. The mean motility induced by vehicle (saline) treatment in the absence of d-amphetamine was used as baseline. The 100 percent effect of d-amphetamine was accordingly calculated to be total motility counts minus baseline. The response in groups receiving test compound was thus determined by the total motility counts minus baseline, expressed in percent of the similar result recorded in the parallel amphetamine control group. The percent responses were converted to percent inhibition from which ED50 values were calculated by means of log-probit analyses. In a parallel set of data, the potential sedative properties (motility inhibition) of the test compounds were evaluated using essentially the same procedure with the exception of not administering d-amphetamine-sulphate at the initiation of locomotor assessment.

## Cc1cc(N2CCOCC2)cc(C)c1NC(=O)CC(C)(C)C [N-(2,6-dimethyl-4-morpholin-4-yl-phenyl)-3,3-dimethyl-butyramide]
Male NMRI mice [1]; dose 1.3 mg/kg
  Immobility in % (±S.D.): 102%
Male NMRI mice [1]; dose 2.5 mg/kg
  Immobility in % (±S.D.): 96.7%
Male NMRI mice [1]; dose 5.0 mg/kg
  Immobility in % (±S.D.): 82.3%
[2]; freely moving rats, data not shown
  Effect on basal extracellular DA level in the nucleus accumbens: did not significantly affected
[2]; time 0 min (baseline sample)
  DA level in the nucleus accumbens, % of baseline: 91 ± 4 % of baseline
[2]; time 20 min
  DA level in the nucleus accumbens, % of baseline: 112 ± 12 % of baseline
[2]; time 40 min
  DA level in the nucleus accumbens, % of baseline: 227 ± 46 % of baseline
[2]; time 60 min
  DA level in the nucleus accumbens, % of baseline: 262 ± 53* % of baseline
[2]; time 80 min
  DA level in the nucleus accumbens, % of baseline: 195 ± 38* % of baseline
[2]; time 100 min
  DA level in the nucleus accumbens, % of baseline: 172 ± 24 % of baseline
[2]; time 120 min
  DA level in the nucleus accumbens, % of baseline: 166 ± 32 % of baseline
[2]; time 140 min
  DA level in the nucleus accumbens, % of baseline: 129 ± 35 % of baseline
[2]; time −20 min (baseline sample)
  DA level in the nucleus accumbens, % of baseline: 100 ± 3 % of baseline
[2]; time −40 min (baseline sample)
  DA level in the nucleus accumbens, % of baseline: 108 ± 5 % of baseline
Male NMRI mice [3]
  ED50: 1.6 mg/kg
Male Wistar rats
  ED50: 2.1 mg/kg
